Laboratory results: US9518052B2, “Pyrazolopyridines and pyrazolopyrimidines” (Pfizer Inc., priority 2014, dated 2016)
Structures can show the parent of a compound that is named as a salt.

Legend:
Type in all cases: biochemical
Conditions in all cases: Caliper assay at 1 mM ATP
JAK1 = JAK1 (Homo sapiens (Human), UniProt P23458); assay: JAK Caliper Enzyme Assay at 1 mM ATP (JAK1)
JAK2 = JAK2 (Homo sapiens (Human), UniProt O60674); assay: JAK Caliper Enzyme Assay at 1 mM ATP (JAK2)
JAK3 = JAK3 (Homo sapiens (Human), UniProt P52333); assay: JAK Caliper Enzyme Assay at 1 mM ATP (JAK3)
TYK2 = TYK2 (Homo sapiens (Human), UniProt P29597); assay: JAK Caliper Enzyme Assay at 1 mM ATP (TYK2)
Sequence of TYK2 (P29597 whole entry, species assumed): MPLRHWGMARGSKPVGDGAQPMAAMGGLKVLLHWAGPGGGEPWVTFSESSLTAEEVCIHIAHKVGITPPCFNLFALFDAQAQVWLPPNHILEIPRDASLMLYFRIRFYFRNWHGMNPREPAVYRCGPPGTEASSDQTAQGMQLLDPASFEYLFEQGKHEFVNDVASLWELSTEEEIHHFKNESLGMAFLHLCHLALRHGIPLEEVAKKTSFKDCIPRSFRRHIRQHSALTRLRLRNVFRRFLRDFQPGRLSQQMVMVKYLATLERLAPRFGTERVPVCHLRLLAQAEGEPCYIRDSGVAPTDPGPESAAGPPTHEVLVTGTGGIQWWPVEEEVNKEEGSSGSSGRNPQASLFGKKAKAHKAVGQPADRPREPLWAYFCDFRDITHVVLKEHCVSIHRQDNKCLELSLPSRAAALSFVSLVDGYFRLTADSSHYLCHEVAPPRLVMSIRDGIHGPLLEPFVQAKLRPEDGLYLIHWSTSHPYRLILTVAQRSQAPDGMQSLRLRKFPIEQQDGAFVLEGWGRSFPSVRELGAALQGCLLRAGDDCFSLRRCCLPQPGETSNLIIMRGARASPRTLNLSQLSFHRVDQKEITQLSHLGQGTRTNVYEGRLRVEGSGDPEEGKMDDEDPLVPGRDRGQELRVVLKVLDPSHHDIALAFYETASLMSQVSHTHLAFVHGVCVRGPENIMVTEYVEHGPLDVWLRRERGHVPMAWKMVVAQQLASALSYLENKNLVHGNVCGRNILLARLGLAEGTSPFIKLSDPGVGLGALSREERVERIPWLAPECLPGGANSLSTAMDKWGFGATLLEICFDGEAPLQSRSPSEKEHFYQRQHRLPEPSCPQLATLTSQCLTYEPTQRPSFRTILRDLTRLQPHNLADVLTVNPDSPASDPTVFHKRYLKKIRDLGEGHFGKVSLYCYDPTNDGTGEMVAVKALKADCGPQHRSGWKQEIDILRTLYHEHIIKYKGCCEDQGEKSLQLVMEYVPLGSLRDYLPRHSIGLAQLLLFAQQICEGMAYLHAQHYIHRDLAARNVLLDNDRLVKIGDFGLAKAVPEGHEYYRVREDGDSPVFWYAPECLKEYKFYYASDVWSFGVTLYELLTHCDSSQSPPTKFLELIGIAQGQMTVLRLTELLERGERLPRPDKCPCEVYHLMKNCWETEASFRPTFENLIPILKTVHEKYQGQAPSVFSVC

Sequence of JAK1 (P23458 whole entry, species assumed): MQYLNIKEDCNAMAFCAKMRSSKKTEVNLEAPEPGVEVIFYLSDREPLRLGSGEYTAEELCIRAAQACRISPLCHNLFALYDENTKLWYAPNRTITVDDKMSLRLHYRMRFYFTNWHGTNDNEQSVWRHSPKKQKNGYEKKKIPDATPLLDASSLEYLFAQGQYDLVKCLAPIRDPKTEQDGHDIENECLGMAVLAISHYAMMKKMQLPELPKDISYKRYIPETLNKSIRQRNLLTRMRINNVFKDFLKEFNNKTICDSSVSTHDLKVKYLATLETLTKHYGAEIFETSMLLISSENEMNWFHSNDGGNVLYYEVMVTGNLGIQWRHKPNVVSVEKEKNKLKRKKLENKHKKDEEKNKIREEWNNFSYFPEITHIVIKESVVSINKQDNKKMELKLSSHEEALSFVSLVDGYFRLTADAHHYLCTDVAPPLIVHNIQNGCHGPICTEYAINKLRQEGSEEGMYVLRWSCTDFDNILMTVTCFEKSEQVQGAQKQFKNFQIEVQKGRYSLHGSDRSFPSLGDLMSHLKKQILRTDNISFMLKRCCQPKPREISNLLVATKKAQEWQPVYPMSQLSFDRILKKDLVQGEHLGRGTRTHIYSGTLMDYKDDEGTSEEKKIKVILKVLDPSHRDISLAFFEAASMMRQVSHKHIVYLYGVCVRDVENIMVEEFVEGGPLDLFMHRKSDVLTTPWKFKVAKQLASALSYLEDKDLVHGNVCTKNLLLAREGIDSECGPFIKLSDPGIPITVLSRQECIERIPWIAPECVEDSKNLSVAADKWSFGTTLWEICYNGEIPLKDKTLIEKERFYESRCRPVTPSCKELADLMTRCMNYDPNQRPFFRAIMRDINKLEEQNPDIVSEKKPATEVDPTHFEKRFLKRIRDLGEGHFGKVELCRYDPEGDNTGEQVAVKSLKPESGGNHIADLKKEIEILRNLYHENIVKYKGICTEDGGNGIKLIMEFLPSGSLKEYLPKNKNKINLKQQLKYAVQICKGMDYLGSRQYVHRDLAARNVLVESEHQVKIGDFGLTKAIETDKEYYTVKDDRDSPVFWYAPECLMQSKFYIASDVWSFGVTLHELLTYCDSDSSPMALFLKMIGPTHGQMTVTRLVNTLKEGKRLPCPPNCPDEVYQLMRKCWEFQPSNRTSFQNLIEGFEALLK
Sequence of JAK3 (P52333 whole entry, species assumed): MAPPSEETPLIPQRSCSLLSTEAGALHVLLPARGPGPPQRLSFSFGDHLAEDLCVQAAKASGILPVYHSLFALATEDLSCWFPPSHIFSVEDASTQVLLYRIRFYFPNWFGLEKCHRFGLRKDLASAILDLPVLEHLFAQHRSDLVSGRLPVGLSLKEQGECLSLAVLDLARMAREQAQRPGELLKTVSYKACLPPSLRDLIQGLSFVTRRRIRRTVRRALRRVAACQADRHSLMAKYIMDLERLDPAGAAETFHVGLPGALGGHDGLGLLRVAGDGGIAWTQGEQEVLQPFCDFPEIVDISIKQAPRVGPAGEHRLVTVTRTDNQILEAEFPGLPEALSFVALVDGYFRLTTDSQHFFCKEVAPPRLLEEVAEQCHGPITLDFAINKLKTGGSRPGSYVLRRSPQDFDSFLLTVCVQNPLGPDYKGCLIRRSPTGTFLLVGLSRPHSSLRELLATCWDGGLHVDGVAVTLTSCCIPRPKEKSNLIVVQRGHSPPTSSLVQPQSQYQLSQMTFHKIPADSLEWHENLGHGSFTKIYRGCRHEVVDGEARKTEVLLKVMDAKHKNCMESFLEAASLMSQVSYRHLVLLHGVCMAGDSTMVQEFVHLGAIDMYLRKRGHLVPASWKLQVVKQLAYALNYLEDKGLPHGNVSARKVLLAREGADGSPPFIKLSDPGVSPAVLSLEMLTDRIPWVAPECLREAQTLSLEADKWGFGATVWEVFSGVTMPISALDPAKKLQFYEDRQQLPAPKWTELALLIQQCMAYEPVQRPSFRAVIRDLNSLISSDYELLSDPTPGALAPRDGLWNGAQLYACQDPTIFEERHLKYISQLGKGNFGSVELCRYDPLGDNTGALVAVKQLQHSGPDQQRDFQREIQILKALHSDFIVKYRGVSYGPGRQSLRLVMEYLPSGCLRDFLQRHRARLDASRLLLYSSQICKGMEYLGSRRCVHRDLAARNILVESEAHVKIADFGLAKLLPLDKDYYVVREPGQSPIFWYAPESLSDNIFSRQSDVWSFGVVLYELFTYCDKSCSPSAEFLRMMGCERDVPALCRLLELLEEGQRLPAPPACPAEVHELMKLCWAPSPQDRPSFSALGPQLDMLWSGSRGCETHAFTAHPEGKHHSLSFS
Sequence of JAK2 (O60674 whole entry, species assumed): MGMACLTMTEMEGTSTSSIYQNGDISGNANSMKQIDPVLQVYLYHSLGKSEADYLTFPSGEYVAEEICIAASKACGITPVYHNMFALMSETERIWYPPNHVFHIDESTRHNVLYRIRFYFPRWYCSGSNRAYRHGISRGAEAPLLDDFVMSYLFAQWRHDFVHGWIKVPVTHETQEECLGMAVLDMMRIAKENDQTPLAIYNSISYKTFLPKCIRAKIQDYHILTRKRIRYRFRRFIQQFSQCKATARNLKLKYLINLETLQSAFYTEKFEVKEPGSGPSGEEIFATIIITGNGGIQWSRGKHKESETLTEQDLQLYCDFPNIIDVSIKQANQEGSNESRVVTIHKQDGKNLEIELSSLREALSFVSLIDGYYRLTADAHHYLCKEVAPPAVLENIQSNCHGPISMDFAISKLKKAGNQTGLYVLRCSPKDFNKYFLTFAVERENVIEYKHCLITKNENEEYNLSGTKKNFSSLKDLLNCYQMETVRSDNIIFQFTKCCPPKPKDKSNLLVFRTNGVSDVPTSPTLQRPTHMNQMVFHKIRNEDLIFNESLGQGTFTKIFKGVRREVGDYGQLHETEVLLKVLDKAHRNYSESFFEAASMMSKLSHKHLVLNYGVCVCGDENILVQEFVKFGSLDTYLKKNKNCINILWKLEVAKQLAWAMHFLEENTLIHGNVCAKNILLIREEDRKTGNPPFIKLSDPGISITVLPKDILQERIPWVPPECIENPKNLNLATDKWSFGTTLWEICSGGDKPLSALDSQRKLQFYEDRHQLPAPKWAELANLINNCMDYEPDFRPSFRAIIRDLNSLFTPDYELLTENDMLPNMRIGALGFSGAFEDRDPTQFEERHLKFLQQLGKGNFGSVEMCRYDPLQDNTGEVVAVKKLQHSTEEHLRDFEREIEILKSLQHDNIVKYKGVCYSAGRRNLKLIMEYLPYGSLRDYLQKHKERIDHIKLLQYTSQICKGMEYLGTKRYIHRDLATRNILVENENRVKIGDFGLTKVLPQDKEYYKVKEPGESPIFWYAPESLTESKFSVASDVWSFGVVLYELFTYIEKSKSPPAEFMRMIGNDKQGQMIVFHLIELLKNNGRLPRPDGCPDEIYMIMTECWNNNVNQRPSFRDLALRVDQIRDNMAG

IC50 (JAK1) [nM]	IC50 (JAK2) [nM]	IC50 (JAK3) [nM]	IC50 (TYK2) [nM]	Compound
29.6	113	475	316	Cc1ccc(NC(=O)c2n[nH]c3cc(-c4cc(F)c(O)cc4CC(F)(F)F)nc(NCc4ccccc4N(C)S(C)(=O)=O)c23)cn1 [Example 76, 6-[5-Fluoro-4-hydroxy-2-(2,2,2-trifluoroethyl)phenyl]-4-({2-[methyl(methylsulfonyl)amino]-benzyl}amino)-N-(6-methylpyridin-3-yl)-1H-pyrazolo[4,3-c]pyridine-3-carboxamide]
3.3	15.1	63.6	27.1	CN(c1ccccc1CNc1nc(-c2cc(F)c(O)cc2CC(F)(F)F)cc2[nH]nc(C(N)=O)c12)S(C)(=O)=O [Example 77, 6-[5-Fluoro-4-hydroxy-2-(2,2,2-trifluoroethyl)phenyl]-4-({2-[methyl(methylsulfonyl)amino]benzyl}amino)-1H-pyrazolo[4,3-c]pyridine-3-carboxamide]
5.9	39.4	89.9	930	CN(c1ncc(F)cc1CNc1nc(-c2cc(F)c(O)cc2CC(F)(F)F)cc2[nH]nc(C(N)=O)c12)S(C)(=O)=O [Example 78, 6-[5-Fluoro-4-hydroxy-2-(2,2,2-trifluoroethyl)phenyl]-4-[({5-fluoro-2-[methyl(methyl-sulfonyl)amino]pyridin-3-yl}methyl)amino]-1H-pyrazolo[4,3-c]pyridine-3-carboxamide]
10.7	59.1	175	698	CCN(c1ncc(F)cc1CNc1nc(-c2cc(F)c(O)cc2CC(F)(F)F)cc2[nH]nc(C(N)=O)c12)S(C)(=O)=O [Example 79, 4-[({2-[ethyl(methylsulfonyl)amino]-5-fluoropyridin-3-yl}methyl)amino]-6-[5-fluoro-4-hydroxy-2-(2,2,2-trifluoroethyl)phenyl]-1H-pyrazolo[4,3-c]pyridine-3-carboxamide]
2.9	16.2	49.2	167	CCN(c1nccnc1CNc1nc(-c2cc(F)c(O)cc2CC(F)(F)F)cc2[nH]nc(C(N)=O)c12)S(C)(=O)=O [Example 80, 4-[({3-[ethyl(methylsulfonyl)amino]pyrazin-2-yl}methyl)amino]-6-[5-fluoro-4-hydroxy-2-(2,2,2-trifluoroethyl)phenyl]-1H-pyrazolo[4,3-c]pyridine-3-carboxamide]
12.1	63.3	201	139	CCN(c1ccc(F)cc1CNc1nc(-c2cc(F)c(O)cc2CC(F)(F)F)cc2[nH]nc(C(N)=O)c12)S(C)(=O)=O [Example 83, 4-((2-(N-ethylmethylsulfonamido)-5-fluorobenzyl)amino)-6-(5-fluoro-4-hydroxy-2-(2,2,2-trifluoro-ethyl)phenyl)-1H-pyrazolo[4,3-c]pyridine-3-carboxamide]
27.6	142	537	880	CCN(c1ccc(Cl)cc1CNc1nc(-c2cc(F)c(O)cc2CC(F)(F)F)cc2[nH]nc(C(N)=O)c12)S(C)(=O)=O [Example 84, 4-((5-chloro-2-(N-ethylmethylsulfonamido)benzyl)amino)-6-(5-fluoro-4-hydroxy-2-(2,2,2-trifluoro-ethyl)phenyl)-1H-pyrazolo[4,3-c]pyridine-3-carboxamide]
7.8	47.2	156	81.4	CCS(=O)(=O)N(C)c1ccccc1CNc1nc(-c2cc(F)c(O)cc2CC(F)(F)F)cc2[nH]nc(C(N)=O)c12 [Example 85, 6-(5-fluoro-4-hydroxy-2-(2,2,2-trifluoroethyl)phenyl)-4-((2-(N-methylethyl-sulfonamido)benzyl)-amino)-1H-pyrazolo[4,3-c]pyridine-3-carboxamide]
30.6	87.8	133	2490	CCN(c1ncc(C)cc1CNc1nc(-c2cc(F)c(O)cc2CC(F)(F)F)cc2[nH]nc(C(N)=O)c12)S(C)(=O)=O [Example 87, 4-[({2-[ethyl(methylsulfonyl)amino]-5-methylpyridin-3-yl}methyl)amino]-6-[5-fluoro-4-hydroxy-2-(2,2,2-trifluoroethyl)phenyl]-1H-pyrazolo[4,3-c]pyridine-3-carboxamide]
14.6	57.1	212	917	CN(c1ccc(Cl)cc1CNc1nc(-c2cc(F)c(O)cc2CC(F)(F)F)cc2[nH]nc(C(N)=O)c12)S(C)(=O)=O [Example 89, 4-({5-chloro-2-[methyl(methylsulfonyl)amino]benzyl}amino)-6-[5-fluoro-4-hydroxy-2-(2,2,2-trifluoroethyl)phenyl]-1H-pyrazolo[4,3-c]pyridine-3-carboxamide]
2.7	18.1	77.1	23.2	CCN(c1ccccc1CNc1nc(-c2cc(F)c(O)cc2CC(F)(F)F)cc2[nH]nc(C(N)=O)c12)S(C)(=O)=O [Example 90, 4-({2-[ethyl(methylsulfonyl)amino]benzyl}amino)-6-[5-fluoro-4-hydroxy-2-(2,2,2-trifluoroethyl)-phenyl]-1H-pyrazolo[4,3-c]pyridine-3-carboxamide]
28.7	128	462	865	CCN(c1ccc(C)cc1CNc1nc(-c2cc(F)c(O)cc2CC(F)(F)F)cc2[nH]nc(C(N)=O)c12)S(C)(=O)=O [Example 91, 4-({2-[ethyl(methylsulfonyl)amino]-5-methylbenzyl}amino)-6-[5-fluoro-4-hydroxy-2-(2,2,2-trifluoroethyl)phenyl]-1H-pyrazolo[4,3-c]pyridine-3-carboxamide]
2.1	13.5	45.7	14.5	CN(c1ccc(O)cc1CNc1nc(-c2cc(F)c(O)cc2CC(F)(F)F)cc2[nH]nc(C(N)=O)c12)S(C)(=O)=O [Example 92, 6-[5-Fluoro-4-hydroxy-2-(2,2,2-trifluoroethyl)phenyl]-4-({5-hydroxy-2-[methyl(methylsulfonyl)amino]benzyl}amino)-1H-pyrazolo[4,3-c]pyridine-3-carboxamide]
2	8.4	27.4	13.9	CCc1cc(O)c(F)cc1-c1nc(NCc2ccccc2N(C)S(C)(=O)=O)c2c(C(=O)NC)n[nH]c2n1 [Example 93, 6-(2-Ethyl-5-fluoro-4-hydroxyphenyl)-N-methyl-4-((2-(N-methylmethylsulfonamido)benzyl)amino)-1H-pyrazolo[3,4-d]pyrimidine-3-carboxamide]
6.7	27	82.4	89.3	CCc1cc(O)c(F)cc1-c1nc(NCc2ccccc2N(C)S(=O)(=O)c2ccccc2)c2c(C(N)=O)n[nH]c2n1 [Example 95, 6-(2-Ethyl-5-fluoro-4-hydroxyphenyl)-4-((2-(N-methylphenylsulfonamido)benzyl)amino)-1H-pyrazolo[3,4-d]pyrimidine-3-carboxamide]
5	31	92.6	349	CCN(c1ccccc1CNc1nc(-c2cc(F)c(O)cc2CC(F)(F)F)nc2[nH]nc(C(=O)NC)c12)S(C)(=O)=O [Example 103, 4-((2-(N-ethylmethylsulfonamido)-benzyl)amino)-6-(5-fluoro-4-hydroxy-2-(2,2,2-trifluoroethyl)phenyl)-N-methyl-1H-pyrazolo[3,4-d]pyrimidine-3-carboxamide]
6.4	31.2	107	674	CNC(=O)c1n[nH]c2nc(-c3cc(F)c(O)cc3CC(F)(F)F)nc(NCc3ccccc3N(C)S(N)(=O)=O)c12 [Example 109, 6-(5-Fluoro-4-hydroxy-2-(2,2,2-trifluoroethyl)phenyl)-N-methyl-4-((2-(methyl(sulfamoyl)amino)benzyl)amino)-1H-pyrazolo[3,4-d]pyrimidine-3-carboxamide]
5.4	26.9	120	35	CNC(=O)c1n[nH]c2nc(-c3cc(F)c(O)cc3CC(F)(F)F)nc(NCc3ccccc3N(C)S(=O)(=O)NC)c12 [Example 110, 6-(5-Fluoro-4-hydroxy-2-(2,2,2-trifluoroethyl)phenyl)-N-methyl-4-((2-(methyl(N-methylsulfamoyl)amino)benzyl)amino)-1H-pyrazolo[3,4-d]pyrimidine-3-carboxamide]
4.3	10.1	16.8	229	CCc1cc(O)ccc1-c1cc2[nH]ncc2c(N2CC(C)(O)C2)n1 [Example 115, 1-[6-(2-ethyl-4-hydroxyphenyl)-1H-pyrazolo[4,3-c]pyridin-4-yl]-3-methylazetidin-3-ol formate]
3.8	10.1	23.3	163	CCc1cc(O)ccc1-c1cc2[nH]ncc2c(N2CCc3ccc(S(=O)(=O)NCCN4CCCC4)cc3C2)n1 [Example 116, 2-[6-(2-ethyl-4-hydroxyphenyl)-1H-pyrazolo[4,3-c]pyridin-4-yl]-N-[2-(pyrrolidin-1-yl)ethyl]-1,2,3,4-tetrahydroisoquinoline-7-sulfonamide formate]
3.3	4.5	9.5	82.1	CCc1cc(O)ccc1-c1cc2[nH]ncc2c(N2CCc3c(cccc3NS(C)(=O)=O)C2)n1 [Example 123, N-{2-[6-(2-ethyl-4-hydroxyphenyl)-1H-pyrazolo[4,3-c]pyridin-4-yl]-1,2,3,4-tetrahydroisoquinolin-5-yl}methanesulfonamide formate]
< 0.5	2.1	10.2	4.7	CCc1cc(O)c(F)cc1-c1cc2[nH]ncc2c(NCc2ccccc2N(C)S(C)(=O)=O)n1 [Example 131, N-[2-({[6-(2-Ethyl-5-fluoro-4-hydroxyphenyl)-1H-pyrazolo[4,3-c]pyridin-4-yl]amino}methyl)phenyl]-N-methylmethanesulfonamide]
